Columns and labels:
[1] = target: T1, Histone-arginine methyltransferase CARM1 (Homo sapiens, UniProt Q86X55); experiment: Selectivity interaction (Western Blot (dimethylation of BAF155 (BAF155me2a/BAF155) in NCI-H929 cells)) EUB0000255b CARM1; type: cell-based
T1 sequence (Q86X55 whole entry): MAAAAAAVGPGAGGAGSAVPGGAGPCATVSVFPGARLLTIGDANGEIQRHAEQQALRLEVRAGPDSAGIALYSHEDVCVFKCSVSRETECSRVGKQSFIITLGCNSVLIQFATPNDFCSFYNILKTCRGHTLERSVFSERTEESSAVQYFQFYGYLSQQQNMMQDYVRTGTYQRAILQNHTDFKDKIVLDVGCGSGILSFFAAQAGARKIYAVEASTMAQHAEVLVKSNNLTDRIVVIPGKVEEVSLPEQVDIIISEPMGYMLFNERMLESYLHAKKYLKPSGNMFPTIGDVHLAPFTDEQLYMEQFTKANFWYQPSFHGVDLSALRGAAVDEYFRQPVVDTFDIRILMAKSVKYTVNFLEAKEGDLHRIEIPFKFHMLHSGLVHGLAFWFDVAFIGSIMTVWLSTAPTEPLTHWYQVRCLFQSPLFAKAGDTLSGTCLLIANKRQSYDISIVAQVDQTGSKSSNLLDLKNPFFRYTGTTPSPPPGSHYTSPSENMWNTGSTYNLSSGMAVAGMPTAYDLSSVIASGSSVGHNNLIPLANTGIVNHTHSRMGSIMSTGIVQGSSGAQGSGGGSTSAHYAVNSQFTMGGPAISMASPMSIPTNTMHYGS

[2] = target: T2, Serine/threonine-protein kinase D3 (Homo sapiens) (UniProt O94806); experiment: Selectivity interaction (KinomeScan (DiscoverX)) EUB0001079a PRKD3; conditions: at 1 µM
T2 sequence (whole entry): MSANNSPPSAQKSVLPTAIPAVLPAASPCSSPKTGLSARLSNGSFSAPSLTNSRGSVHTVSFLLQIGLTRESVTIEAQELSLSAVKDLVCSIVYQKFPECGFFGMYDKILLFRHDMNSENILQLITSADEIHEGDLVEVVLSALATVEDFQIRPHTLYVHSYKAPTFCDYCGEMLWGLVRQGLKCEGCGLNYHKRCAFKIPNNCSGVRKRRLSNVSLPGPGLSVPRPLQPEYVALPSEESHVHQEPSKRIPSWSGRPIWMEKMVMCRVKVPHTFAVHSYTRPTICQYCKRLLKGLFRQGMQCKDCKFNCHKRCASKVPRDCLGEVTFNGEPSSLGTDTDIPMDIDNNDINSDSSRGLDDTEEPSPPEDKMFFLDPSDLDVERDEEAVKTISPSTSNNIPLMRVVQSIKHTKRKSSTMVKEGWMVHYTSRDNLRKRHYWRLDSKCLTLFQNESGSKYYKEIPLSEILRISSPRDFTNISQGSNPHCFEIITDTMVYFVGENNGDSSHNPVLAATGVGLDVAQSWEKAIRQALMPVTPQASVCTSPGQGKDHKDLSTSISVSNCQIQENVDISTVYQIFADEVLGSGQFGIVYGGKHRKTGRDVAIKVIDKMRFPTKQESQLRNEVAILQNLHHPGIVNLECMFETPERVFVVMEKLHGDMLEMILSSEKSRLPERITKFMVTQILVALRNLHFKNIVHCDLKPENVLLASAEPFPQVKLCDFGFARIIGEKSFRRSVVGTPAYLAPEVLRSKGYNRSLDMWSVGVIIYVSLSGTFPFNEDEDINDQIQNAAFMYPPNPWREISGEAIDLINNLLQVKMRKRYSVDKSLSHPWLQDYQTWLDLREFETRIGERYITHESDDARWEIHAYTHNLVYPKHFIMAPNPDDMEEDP

[3] = target: Microtubule-associated serine/threonine-protein kinase 1 (Homo sapiens) (UniProt Q9Y2H9); experiment: Selectivity interaction (KinomeScan (DiscoverX)) EUB0000618a MAST1; conditions: at 10 µM
[4] = target: Mitogen-activated protein kinase 3 (Homo sapiens, UniProt P27361); experiment: Selectivity interaction (KinomeScan (DiscoverX)) EUB0000618a MAPK3; conditions: at 10 µM
[5] = target: T3, Mitogen-activated protein kinase 13 (Homo sapiens) (UniProt O15264); experiment: Selectivity interaction (Kinase screening (Upstate/Millipore)) EUB0000604a MAPK13
T3 sequence (whole entry): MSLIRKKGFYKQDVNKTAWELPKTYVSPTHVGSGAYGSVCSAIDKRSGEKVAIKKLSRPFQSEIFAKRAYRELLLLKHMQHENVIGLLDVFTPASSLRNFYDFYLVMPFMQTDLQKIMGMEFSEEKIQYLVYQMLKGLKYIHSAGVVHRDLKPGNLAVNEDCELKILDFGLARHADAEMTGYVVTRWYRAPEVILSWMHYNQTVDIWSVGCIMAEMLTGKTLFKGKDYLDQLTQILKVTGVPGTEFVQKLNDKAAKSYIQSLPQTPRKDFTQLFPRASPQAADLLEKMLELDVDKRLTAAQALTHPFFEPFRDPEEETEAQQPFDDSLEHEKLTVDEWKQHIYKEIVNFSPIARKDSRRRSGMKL

[6] = target: T4, Serine/threonine-protein kinase tousled-like 1 (Homo sapiens) (UniProt Q9UKI8); experiment: Selectivity interaction (ActivX KiNativ screen (ex vivo kinase selectivity in human PBMCs)) EUB0001619a TLK1; type: cell-based; conditions: PBMC, at 1 µM
T4 sequence (whole entry): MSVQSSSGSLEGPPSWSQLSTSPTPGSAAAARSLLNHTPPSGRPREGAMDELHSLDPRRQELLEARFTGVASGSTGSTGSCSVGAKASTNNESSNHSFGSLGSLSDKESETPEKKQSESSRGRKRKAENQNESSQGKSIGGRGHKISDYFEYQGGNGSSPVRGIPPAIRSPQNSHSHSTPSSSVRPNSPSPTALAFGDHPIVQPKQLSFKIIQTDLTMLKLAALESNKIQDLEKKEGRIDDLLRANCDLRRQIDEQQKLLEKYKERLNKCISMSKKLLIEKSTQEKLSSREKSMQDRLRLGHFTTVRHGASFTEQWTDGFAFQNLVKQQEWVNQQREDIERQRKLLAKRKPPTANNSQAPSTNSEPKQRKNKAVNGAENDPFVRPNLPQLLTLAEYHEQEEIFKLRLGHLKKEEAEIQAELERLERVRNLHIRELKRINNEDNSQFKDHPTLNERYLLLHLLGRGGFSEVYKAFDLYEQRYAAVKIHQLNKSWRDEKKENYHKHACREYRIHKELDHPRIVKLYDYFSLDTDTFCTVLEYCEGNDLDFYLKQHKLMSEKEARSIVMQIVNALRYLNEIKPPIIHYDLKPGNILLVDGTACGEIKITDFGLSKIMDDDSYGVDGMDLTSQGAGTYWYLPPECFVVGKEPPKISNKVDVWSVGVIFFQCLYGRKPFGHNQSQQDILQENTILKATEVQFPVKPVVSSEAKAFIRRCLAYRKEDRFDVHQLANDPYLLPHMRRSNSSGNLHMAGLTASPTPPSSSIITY

[7] = target: Serine/threonine-protein kinase pim-3 (Homo sapiens) (UniProt Q86V86); experiment: Selectivity interaction (KinomeScan (DiscoverX)) EUB0001619a PIM3; conditions: at 1 µM

Sequence of Mitogen-activated protein kinase 3 (P27361 whole entry): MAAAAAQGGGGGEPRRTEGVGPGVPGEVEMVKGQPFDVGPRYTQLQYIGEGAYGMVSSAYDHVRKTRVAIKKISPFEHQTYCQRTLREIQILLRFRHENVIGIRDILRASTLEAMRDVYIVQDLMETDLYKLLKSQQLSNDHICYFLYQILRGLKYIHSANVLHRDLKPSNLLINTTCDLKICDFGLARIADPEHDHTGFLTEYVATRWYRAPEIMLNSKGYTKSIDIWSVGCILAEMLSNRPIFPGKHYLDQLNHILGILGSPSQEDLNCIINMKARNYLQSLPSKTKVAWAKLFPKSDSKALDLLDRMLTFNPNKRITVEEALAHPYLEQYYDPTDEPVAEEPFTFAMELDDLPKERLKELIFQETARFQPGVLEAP
Sequence of Microtubule-associated serine/threonine-protein kinase 1 (Homo sapiens) (Q9Y2H9 whole entry, looked up): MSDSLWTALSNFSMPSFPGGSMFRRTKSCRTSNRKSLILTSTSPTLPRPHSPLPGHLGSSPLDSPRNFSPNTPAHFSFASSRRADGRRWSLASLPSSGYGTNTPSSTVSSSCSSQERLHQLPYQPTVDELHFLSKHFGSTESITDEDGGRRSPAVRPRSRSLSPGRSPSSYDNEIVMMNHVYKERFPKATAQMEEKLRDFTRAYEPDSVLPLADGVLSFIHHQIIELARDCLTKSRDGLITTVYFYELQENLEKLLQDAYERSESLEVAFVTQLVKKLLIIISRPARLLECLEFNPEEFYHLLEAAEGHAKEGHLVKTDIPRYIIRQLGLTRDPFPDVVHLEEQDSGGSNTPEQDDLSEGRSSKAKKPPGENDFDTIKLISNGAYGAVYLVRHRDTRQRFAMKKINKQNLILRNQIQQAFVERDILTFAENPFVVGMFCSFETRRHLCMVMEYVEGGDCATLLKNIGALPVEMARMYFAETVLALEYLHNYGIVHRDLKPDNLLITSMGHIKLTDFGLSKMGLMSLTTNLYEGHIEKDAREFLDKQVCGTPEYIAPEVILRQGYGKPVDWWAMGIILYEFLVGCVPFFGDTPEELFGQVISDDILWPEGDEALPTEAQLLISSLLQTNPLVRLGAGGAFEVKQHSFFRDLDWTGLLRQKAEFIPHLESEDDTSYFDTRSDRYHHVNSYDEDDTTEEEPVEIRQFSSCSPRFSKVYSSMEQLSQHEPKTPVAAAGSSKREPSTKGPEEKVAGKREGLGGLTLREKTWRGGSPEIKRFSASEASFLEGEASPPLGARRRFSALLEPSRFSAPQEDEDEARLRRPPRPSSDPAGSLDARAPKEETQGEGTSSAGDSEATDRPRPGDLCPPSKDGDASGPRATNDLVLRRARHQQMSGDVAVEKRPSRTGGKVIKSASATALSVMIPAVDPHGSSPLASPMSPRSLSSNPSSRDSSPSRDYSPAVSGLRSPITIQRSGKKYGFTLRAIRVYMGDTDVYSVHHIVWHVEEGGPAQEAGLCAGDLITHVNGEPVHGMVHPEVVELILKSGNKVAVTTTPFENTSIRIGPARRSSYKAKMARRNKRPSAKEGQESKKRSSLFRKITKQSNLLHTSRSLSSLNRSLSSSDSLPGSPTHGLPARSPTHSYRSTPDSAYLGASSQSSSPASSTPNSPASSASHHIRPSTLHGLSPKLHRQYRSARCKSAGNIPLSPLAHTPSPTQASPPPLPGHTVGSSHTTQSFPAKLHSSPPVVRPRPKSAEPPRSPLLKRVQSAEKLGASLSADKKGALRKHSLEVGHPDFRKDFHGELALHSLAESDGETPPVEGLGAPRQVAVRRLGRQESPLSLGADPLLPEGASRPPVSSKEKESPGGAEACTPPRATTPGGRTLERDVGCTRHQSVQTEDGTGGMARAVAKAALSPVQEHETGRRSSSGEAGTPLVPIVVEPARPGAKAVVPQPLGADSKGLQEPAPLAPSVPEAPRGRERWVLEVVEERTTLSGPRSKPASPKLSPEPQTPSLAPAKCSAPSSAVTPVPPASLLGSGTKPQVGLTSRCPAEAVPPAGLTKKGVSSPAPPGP

COCCN1CCC(c2cc(CN(C)C(=O)c3cccc(Oc4ccccc4)c3)ccn2)CC1
IC50 [1]: > 3 nM

Nc1cnc(N2CCc3cc(S(=O)(=O)Nc4c(F)cc(Cl)cc4F)cc(N4CCCC4=O)c32)nc1 [TP-020n]
% of control [2]: 88%

O[C@H]1CC[C@H](Nc2ncc3nc(Nc4c(F)cc(F)cc4F)n([C@H]4CCOC4)c3n2)CC1
% of control [3]: 75%
% of control [4]: 32%

Cc1cnc(Nc2ccc(F)cc2Cl)nc1-c1c[nH]c(C(=O)N[C@H](CO)c2cccc(Cl)c2)c1
% of inhibition [5]: 54%

N#Cc1cccc(-c2c[nH]c3ncnc(N4CCOCC4)c23)c1
% of inhibition [6]: 6%
% of control [7]: 100%

Source: ChEMBL document CHEMBL5465560, “Selectivity Literature for EUbOPEN Chemogenomic Library” (2024)
